# Assay results taken from paper PMC5428521, “Identification of a Novel, Small Molecule Partial Agonist for the Cyclic AMP Sensor, EPAC1” (Scientific Reports, 2017).
# Like-named read-outs stand apart in the source and are kept apart here.
# Assays:
# EPAC1-CNB [1] = target: T1, EPAC1-CNB (Homo sapiens, UniProt O95398); test: 8-NBD-cAMP competition assay with EPAC1-CNB; format: binding
# T1 construct: EPAC1-CNB (amino acids 169–318 of EPAC1); made in house; host or cells: BL-21 Escherichia coli (pGEX-6P-1)
# T1 sequence (O95398 169-318 isoform O95398-3): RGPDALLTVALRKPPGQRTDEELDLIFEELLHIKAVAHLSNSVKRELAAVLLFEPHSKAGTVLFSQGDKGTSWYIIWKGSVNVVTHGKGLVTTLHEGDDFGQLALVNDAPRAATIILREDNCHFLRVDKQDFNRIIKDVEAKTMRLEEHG
# Experimental: Optimisation of assay conditions was performed in 96 well black assay plates (Greiner). Comparison of reference molecules, dose response curves and pilot screen were done in black, low volume 384 assay plates (Greiner). Liquids were dispensed using a Biomek Fx laboratory automation workstation with a 96-multichannel pipetting head (Beckman Coulter) for optimisation, whereas the Echo® Liquid Handler (Labcyte) and Wellmate automated dispenser (Thermo Matrix) were employed for pilot screens (see library screening).
# This was done using the optimised assay conditions developed during the study. Library compounds were transferred from pre-prepared, 1000x stock Echo® 384 LDV source plates (Labcyte) into black, low volume 384 assay plates (Greiner) at 25 nl volumes, using an Echo® Liquid Handler (Labcyte), maintaining 0.1–1% DMSO throughout. EPAC1-CNB (0.8 µM) was immediately added using a Wellmate automated dispenser (Thermo Matrix). Plates were centrifuged at 800 rpm, 10 s, and then incubated for 30 minutes, RT, to promote compound-protein complex formation. […] The assay was incubated at room temperature and the fluorescence intensity at 480/535 nm (ex/em) was measured after 4–15 hours using the Envision plate reader.
# EPAC1-CNB [2] = target: T1, EPAC1-CNB; settings: published Kd values shown for comparison; cited from earlier work
# EPAC1-CNB [3] = target: T1, EPAC1-CNB; test: Ligand observed NMR (1D and waterLOGSY) with EPAC1-CNB; format: binding; settings: compound 50 µM, protein 2.5 µM
# Description: (§1) Given that I942 seems to exert selective agonist properties against EPAC1, but not EPAC2, we next sought to validate whether our isolated ligands can interact with EPAC1 and EPAC2. Ligand observed nuclear magnetic resonance (NMR) is a valuable tool for the identification and validation of small molecule ligands. We therefore used one dimensional proton (1D) and water-ligand observed by gradient spectroscopy (waterLOGSY) NMR to confirm the ability of I942 and I178 to bind to the purified CNBs of EPAC1 and EPAC2, in comparison with the commercially available EPAC1 antagonist, ESI-09[32]. In order to assess ligand/CNB interaction, 1D and waterLOGSY experiments were performed on each compound (50 µM) in the presence or absence of 2.5 µM EPAC-CNB. In the absence of protein, each test compound produced a well-resolved 1D spectrum and a region of each spectrum was chosen to display distinctive spectral peaks originating from the ligand (Fig. 6). In the absence of protein, the corresponding waterLOGSY peaks were small, or absent, due to the negligible signal produced by saturation transfer from water to the freely tumbling small molecule. […] In waterLOGSY spectra, protein-mediated saturation transfer can only occur if the protein-ligand complex has a substantial lifetime. […]
# (§2) (A) One dimensional proton (1D) and waterLOGSY (WL) spectra were performed on samples containing hit compound I942 (50 µM) in the absence and presence of EPAC1-CNB, EPAC2-CNB or GST alone, as indicated (2.5 µM). […] Interaction between compound and protein was assessed through comparison of the compound alone and protein-compound sample spectra. […]
# (§3) All NMR spectra were recorded on a Bruker AVANCE IIIHD 600 spectrometer equipped with a TCI cryoprobe at 285 K. Test compounds were prepared in deuterated DMSO and diluted to given experimental concentrations in NMR buffer (20 mM Na2PO4, pH 7.0, 50 mM NaCl, 0.1% (w/v) NaN3, 5% (v/v) D2O) with a final DMSO concentration below 0.1%. […] One dimensional proton (1D) and waterLOGSY spectra were recorded for all compounds tested, using pulse sequences as previously described. […]
# EPAC2-CNB = target: T2, EPAC2-CNB (Mus musculus, UniProt Q9EQZ6); test: Ligand observed NMR (1D and waterLOGSY) with EPAC2-CNB; format: binding; settings: compound 50 µM, protein 2.5 µM
# T2 construct: EPAC2-CNB (amino acids 304–453 of EPAC2); made in house; host or cells: BL-21 Escherichia coli (pGEX-6P-1)
# T2 sequence (Q9EQZ6 304-453 isoform Q9EQZ6-3): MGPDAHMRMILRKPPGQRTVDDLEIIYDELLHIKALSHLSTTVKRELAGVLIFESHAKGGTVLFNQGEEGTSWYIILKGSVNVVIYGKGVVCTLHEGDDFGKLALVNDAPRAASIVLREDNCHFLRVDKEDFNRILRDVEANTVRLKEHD
# Description: as §1, §2, §3
# GST = GST (Schistosoma japonicum, UniProt P08515); test: Ligand observed NMR (1D and waterLOGSY) with GST alone; format: binding; settings: compound 50 µM, GST 2.5 µM
# Description: as §1, §2, §3
# protein kinase A (PKA) = test: PKA kinase activity assay in HEK293T cell extracts; format: biochemical; settings: 1 mM cAMP, compound 0.1 to 100 µM
# Experimental: PKA activity was measured directly in cell extracts using the PKA Kinase Activity Assay Kit (Abcam) following the manufacturer's instructions. […] Cells were washed in ice-cold PBS containing phosphatase inhibitors, scrapped into Eppendorf tubes and centrifuged at 200 × g at 4 °C for 5 minutes. Supernatants were discarded and the cell pellet was re-suspended in Complete Lysis Buffer containing 1 mM DTT, 1 mM PMSF and protease inhibitor cocktail (Roche) and then incubated for 10 minutes on ice (on the rocking platform) followed by vortex and centrifugation at […] at 4 °C for 20 minutes. Cell extracts were then transferred to fresh Eppendorf tubes, assayed for protein content and then stored at -80 °C. […] Next, 10 μl of ATP was added to each well and incubated at 30 °C for 90 min, with gentle shaking. The reaction was stopped by aspirating the contents of each well and then 40 μl of PKA phosphospecific substrate antibody was added to each well and then the plate was covered with plastic wrap and incubated at room temperature for 60 min (with gentle shaking every 20 min). […] Fluorescence was then measured at 480/530 nm. […] PKA activity was then measured in the cell extracts using an ELISA assay according to the manufactures instructions. […]
# [4] = target: T3, EPAC1 (amino acids 149–881) (Homo sapiens, UniProt O95398); test: In vitro GEF activity assay (MANT-GDP dissociation from Rap1), EPAC1; format: biochemical; settings: 500 μM compound, 500 μM cAMP
# T3 construct: recombinant EPAC1 (amino acids 149–881); made in house; host or cells: bacteria
# T3 sequence (O95398 149-881 isoform O95398-3): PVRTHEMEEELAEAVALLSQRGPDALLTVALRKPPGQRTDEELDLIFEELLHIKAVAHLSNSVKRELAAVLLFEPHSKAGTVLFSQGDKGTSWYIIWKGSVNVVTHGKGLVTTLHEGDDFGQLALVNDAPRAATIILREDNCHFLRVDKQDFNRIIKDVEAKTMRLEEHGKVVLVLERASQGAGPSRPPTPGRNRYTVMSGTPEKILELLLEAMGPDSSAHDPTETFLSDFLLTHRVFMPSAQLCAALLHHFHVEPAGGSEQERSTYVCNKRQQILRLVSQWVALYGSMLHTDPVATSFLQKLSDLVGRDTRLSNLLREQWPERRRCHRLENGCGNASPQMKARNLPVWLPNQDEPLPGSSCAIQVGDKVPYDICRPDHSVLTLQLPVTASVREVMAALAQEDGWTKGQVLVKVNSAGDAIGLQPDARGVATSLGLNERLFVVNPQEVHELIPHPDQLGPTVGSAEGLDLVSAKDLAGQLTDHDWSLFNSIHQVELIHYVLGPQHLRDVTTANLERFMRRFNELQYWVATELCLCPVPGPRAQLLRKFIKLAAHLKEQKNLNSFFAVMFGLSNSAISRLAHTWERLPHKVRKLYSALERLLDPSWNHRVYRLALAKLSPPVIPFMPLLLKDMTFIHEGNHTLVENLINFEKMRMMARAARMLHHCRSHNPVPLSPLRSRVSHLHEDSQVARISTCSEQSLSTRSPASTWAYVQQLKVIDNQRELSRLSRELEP
# Experimental: For this, we used the well-characterised EPAC GEF activity assay. The assay is based on the EPAC-stimulated dissociation of fluorescent MANT-GDP from recombinant Rap1 in the presence of excess non-fluorescent nucleotide.
# The data are fitted as single exponential decay with off-set (red lines) to obtain the rate constants kobs, as shown in (b).
# EPAC1 and EPAC2 in vitro GEF activities were calculated as previously described. Briefly, recombinant EPAC1 (amino acids 149–881) or EPAC2 (amino acids 280–993) were incubated at 100 nM with recombinant Rap1 (200 nM) preloaded with the fluorescent GDP analogue 2′/3′-O-(N-Methylanthraniloyl)guanosine 5-diphosphate (MANT-GDP) in the presence of 20 μM GDP and then the fluorescence intensity was measured at 360/450 nm (ex/em) over time. […] AC50 or IC50 values were determined from the plots of kobs against the concentration of the agonist and antagonist, respectively Table 1.
# [5] = 8-NBD-cAMP 62.5 nM, EPAC1-CNB 0.8 µM, known competitor compounds, read-out: IC50, inhibition of 8-NBD-cAMP fluorescence
# [6] = 7-point dose response, 75 µM top concentration, 0.75% DMSO, read-out: IC50, 8-NBD-cAMP binding assay
# Chain of GST (P08515 whole entry): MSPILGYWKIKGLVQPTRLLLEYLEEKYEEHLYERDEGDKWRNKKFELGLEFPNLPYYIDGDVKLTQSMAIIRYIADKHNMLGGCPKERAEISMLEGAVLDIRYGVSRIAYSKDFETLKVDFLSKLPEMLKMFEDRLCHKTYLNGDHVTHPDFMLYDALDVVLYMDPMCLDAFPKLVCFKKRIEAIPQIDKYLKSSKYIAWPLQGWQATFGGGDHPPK
Compound,IC50 (EPAC1-CNB [1]; [5]) [µM],Kd (EPAC1-CNB [2]) [µM],IC50 (EPAC1-CNB [1]; [6]) [µM],further results
"Nc1ncnc2c1nc(Sc1ccc(Cl)cc1)n2[C@@H]1O[C@@H]2COP(=O)(O)O[C@H]2[C@H]1O [8-CPT, 8-CPT-cAMP, reference compound]",0.53,0.04,,
"CC(C)(C)c1cc(C(=O)C(C#N)=NNc2cccc(Cl)c2)no1 [ESI-09, 3-(5-tert-butyl-isoxazol-3-yl)-2-[(3-chloro-phenyl)-hydrazonol]-3-oxo-propionitrile, reference compound]",,,,NMR interaction (EPAC1-CNB [3]): attenuated; NMR interaction (EPAC2-CNB): attenuated; NMR interaction with GST alone (GST): may interact non-specifically with GST
"O=S(=O)(NCCNC/C=C/c1ccc(Br)cc1)c1cccc2cnccc12 [H-89, reference compound]",,,,effect on PKA activity induced by cAMP (protein kinase A (PKA)): dose-dependent inhibition
"CC(=O)Nc1cccc(OCC(=O)NS(=O)(=O)c2ccc(C)cc2)c1 [I516, 2-[3-(acetylamino)phenoxy]-N-[(4-methylphenyl)sulfonyl]acetamide]",,,> 75,inhibition of cAMP-induced EPAC1 activity [4]: no detectable inhibitory effect
"CO[C@@H]1[C@@H]2OP(=O)(O)OC[C@H]2O[C@H]1n1c(Sc2ccc(Cl)cc2)nc2c(N)ncnc21 [compound 007, 8-pCPT-2′-O-Me-cAMP, reference compound]",1.67,0.63,,
N-[(4-chlorophenyl)sulfonyl]-2-(1-naphthyloxy)acetamide [I288],,,~70,
